# Source: patent US20250082592A1, “PHARMACEUTICAL COMPOSITION FOR PREVENTION, ALLEVIATION OR TREATMENT OF SARCOPENIA, CONTAINING ROR-alpha ACTIVATOR JC1-40” (SEOUL NATIONAL UNIVERSITY R & DB FOUNDATION, priority 2021, published 2025)
# Legend:
# [1] = test system: male C57BL/6 mice, high-fat diet; assay: High-fat diet-induced animal model, gastrocnemius tissue immunofluorescence; format: in vivo; details: JC1-40 5 mg/kg orally once a day for 5 weeks
# Experimental: To confirm the correlation between the administration of JC1-40, an increase in mitochondrial biosynthesis, and the suppression of sarcopenia, experiments were conducted using a diet-induced animal model. Specifically, male C57BL/6 mice aged 5 weeks were acclimatized in a temperature and humidity-controlled environment for one week and were provided with a high-fat diet (fats derived from lard and soybean oil, 60 kcal % included, Research diets) for 12 weeks. From the 8th week of the diet, JC1-40 was orally administered once a day for 5 weeks at a concentration of 5 mg/kg (FIG. 6A). In detail, an amount of JC1-40 corresponding to the final concentration was measured and added to sterile water containing 0.5% carboxymethyl cellulose, and then uniformly suspended using a mortar and pestle to produce the drug. The dose for each mouse subject was taken and orally administered using a Sonde. The control group was administered sterile water containing 0.5% carboxymethyl cellulose in the same manner. After 12 weeks of diet were completed, the mice were anesthetized, the gastrocnemius tissue was extracted, and it was fixed using a 4% paraformaldehyde solution. The fixed tissue underwent washing, decalcification, and dehydration, and was ultimately made into a paraffin block using paraffin. The created paraffin block was cut into sections with a thickness of 3 μm, and after creating sections, protein expression was confirmed with fluorescence using specific antibodies for COX4 (Cytochrome c oxidase subunit 4, Santa Cruz Biotechnology) and TFAM (Mitochondrial transcription factor A, Santa Cruz Biotechnology).
# [2] = target: T1, RORα (Mus musculus, UniProt P51448); assay: RORα dependency of TFAM expression, si-RORα transfection in C2C12 cells; format: cell-based; details: JC1-40 20 μM, 48 hours
# T1 construct: endogenous in cells; host or cells: C2C12 cells
# T1 sequence (P51448 1-523): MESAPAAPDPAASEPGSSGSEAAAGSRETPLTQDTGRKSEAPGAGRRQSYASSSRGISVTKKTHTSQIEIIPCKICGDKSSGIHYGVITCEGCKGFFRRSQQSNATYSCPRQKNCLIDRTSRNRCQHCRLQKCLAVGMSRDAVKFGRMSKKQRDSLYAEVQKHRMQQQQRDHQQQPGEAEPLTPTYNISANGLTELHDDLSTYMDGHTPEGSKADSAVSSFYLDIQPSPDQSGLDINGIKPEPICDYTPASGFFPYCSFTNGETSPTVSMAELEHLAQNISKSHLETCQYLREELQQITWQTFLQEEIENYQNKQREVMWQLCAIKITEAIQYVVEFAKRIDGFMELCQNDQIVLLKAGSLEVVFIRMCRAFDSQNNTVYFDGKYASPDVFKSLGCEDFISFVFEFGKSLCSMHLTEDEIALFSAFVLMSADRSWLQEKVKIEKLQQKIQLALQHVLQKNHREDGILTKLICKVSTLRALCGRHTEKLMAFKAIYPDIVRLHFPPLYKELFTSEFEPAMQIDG
# Experimental: C2C12 cells (8×10^5 cells/dish) were seeded in a 60 mm dish and cultured overnight in DMEM (Dulbecco's modified Eagle's medium) containing 10% FBS (fetal bovine serum). The C2C12 cells were maintained at 37° C. in a humidified incubator with 5% CO2 and 95% air. After 24 hours of cultivation, si-RORα (250 pmoles) and si-GL3 (control group) were transfected into C2C12 cells using Lipofectamine 2000 (Thermo Fisher Scientific). After 24 hours post-transfection, the medium was switched to DMEM differentiation medium containing 2% horse serum, and treated with JC1-40 (20 μM) for 48 hours. The methods for RNA and protein extraction were as previously mentioned.
# [3] = test system: TFAM promoter; assay: TFAM promoter transcriptional activity, human TFAM-Luc reporter luciferase assay in C2C12 cells; format: cell-based; details: JC1-40 20 μM, 24 hours
# Experimental: C2C12 cells (1×10^5 cells/well) were seeded in a 12-well culture plate and cultured overnight in DMEM containing 10% FBS. The C2C12 cells were maintained at 37° C. in a humidified incubator with 5% CO2 and 95% air. After 24 hours of cultivation, human TFAM-Luc reporter (100 ng) was transfected into C2C12 cells using PolyFect (QIAGEN). After 24 hours post-transfection, the medium was changed to DMEM differentiation medium containing 2% horse serum, and treated with JC1-40 (20 μM) and solvent (control group). 24 hours later, cell lysates were obtained and luciferase activity was analyzed and determined using an analytical luminescence luminometer.
# [4] = test system: C2C12 cells; assay: Protein expression of NRF1 and TFAM, Western blotting; format: cell-based; details: JC1-40 20 μM
# Experimental: Using a method identical to the above, after treating C2C12 cells with the compound JC1-40, the expression of the mitochondrial biosynthesis regulators, NRF1 and TFAM proteins, was analyzed by Western blotting. Specific antibodies for NRF1 (Santa Cruz Biotechnology), TFAM (Santa Cruz Biotechnology), and α-tubulin (Millipore) were also used.
# [5] = test system: C2C12 cells; assay: mRNA expression of mitochondrial biosynthesis regulators (PGC-1α, NRF-1, NRF-2α, TFAM), real-time PCR; format: cell-based; details: JC1-40 20 μM, 48 hours
# Experimental: C2C12 cells (8×10^5 cells/dish) were seeded in a 60 mm dish and cultured in DMEM (Dulbecco's modified Eagle's medium) containing 10% FBS (fetal bovine serum). The C2C12 cells were maintained at 37° C. in a humidified incubator with 5% CO2 and 95% air. After 48 hours of cultivation, the medium was changed to DMEM differentiation medium containing 2% horse serum, and treated with JC1-40 (20 μM) and solvent (control group). 48 hours after changing to the differentiation medium, RNA was extracted. The RNA extraction method is as described in Example 3. The results of the mRNA expression of mitochondrial biosynthesis regulators PGC-1α(Peroxisome proliferator-activated receptor gamma coactivator 1-alpha), NRF-1 (Nuclear Respiratory Factor 1), NRF-2a (Nuclear Respiratory Factor 2 alpha), and TFAM (Mitochondrial transcription factor A) induced by JC1-40 are shown in FIG. 4A.
# [6] = test system: C2C12 cells; assay: Mitochondrial membrane potential, TMRM staining of C2C12 myotubes; format: cell-based; details: JC1-40 20 μM, 48 hours in differentiation medium, vs solvent control
# Experimental: C2C12 cells (2×10^5 cells/well) were seeded in a 12-well culture plate and cultivated in DMEM (Dulbecco's modified Eagle's medium) medium containing 10% FBS (fetal bovine serum). The C2C12 cells were maintained at 37° C. in a humidified incubator with 5% CO2 and 95% air. After 48 hours of cultivation, the medium was changed to DMEM (Dulbecco's modified Eagle's medium) differentiation medium containing 2% horse serum, and the cells were treated with JC1-40 (20 μM) and solvent (control group). 48 hours after changing the differentiation medium, the mitochondria of the C2C12 cells were stained with Tetramethylrhodamine, Methyl Ester, and Perchlorate (TMRM) 600 nM. After 20 minutes, the medium was replaced with new medium containing TMRM 150 nM, and red fluorescence was observed after 10 minutes.
# [7] = test system: C2C12 cells; assay: mRNA expression of mitochondrial constituent genes (SDHA, COX5A, MCAD), real-time PCR; format: cell-based; details: JC1-40 20 μM, 48 hours
# Experimental: C2C12 cells (8×10^5 cells/dish) were seeded in a 60 mm dish and cultured in DMEM (Dulbecco's modified Eagle's medium) medium containing 10% FBS (fetal bovine serum). C2C12 cells were maintained at 37° C. in a humidified incubator with 5% CO2 and 95% air. After 48 hours of cultivation, the medium was changed to DMEM differentiation medium containing 2% horse serum, and the cells were treated with JC1-40 (20 μM) and solvent (control group). After 48 hours from the replacement of the differentiation medium, RNA was extracted. For extraction, the cells were dissolved with EASY BLUE (Intron, Korea), and isopropanol fractionation and ethanol precipitation were utilized. cDNA was synthesized from each RNA sample, and oligomers amplifying the cDNA of specific genes were utilized, monitoring the expression of R-actin as a control group. More specifically, an mRNA-M-MLV mixture was prepared using M-MLV reverse transcriptase (Invitrogen), and reverse transcription polymerase chain reaction was conducted using a thermal cycler. Subsequently, real-time polymerase chain reaction was performed using the ABI StepOnePlus Real-Time PCR system (Applied Biosystems).
# [8] = test system: HeLa cells; assay: Mitochondrial quantity, MitoTracker Green staining of HeLa cells; format: cell-based; details: JC1-40 5 μM and 50 μM, 24 hours, vs solvent control
# Experimental: HeLa cells (4×10^4 cells/well) were seeded in a 12-well culture plate and cultivated overnight in DMEM (Dulbecco's modified Eagle's medium) medium containing 10% FBS (fetal bovine serum). The HeLa cells were maintained at 37° C. in a humidified incubator with 5% CO2 and 95% air. After 24 hours of cultivation, the medium was replaced and JC1-40 (5 μM, 50 μM), and solvent (control group) were treated for 24 hours.
compound,measurement,setting,value
"CNC(=S)NCc1ccc(OCc2ccccc2)cc1 [JC1-40, 1-methyl-3-[(4-phenylmethoxyphenyl)methyl]thiourea]",protein expression of COX4 in gastrocnemius tissue,[1],significantly increased
same,protein expression of TFAM in gastrocnemius tissue,[1],significantly increased
same,sarcopenia induced by the high-fat diet,[1],significantly improved
same,increase in TFAM expression with si-RORα,[2]; C2C12 cells transfected with si-RORα (250 pmoles),did not occur
same,protein expression of TFAM,"[2]; C2C12 cells, si-GL3 control",increased
same,transcriptional activity of the TFAM promoter (luciferase activity),[3],confirmed to be due to the transcriptional activity of the TFAM promoter
same,protein expression of NRF-1,[4],increased
same,protein expression of TFAM,[4],increased
same,mRNA expression of NRF-1,[5],increased
same,mRNA expression of NRF-2,[5],increased
same,mRNA expression of PGC-1α,[5],increased
same,mRNA expression of TFAM,[5],increased
same,"red fluorescence (TMRM), mitochondrial membrane potential",[6],increased
same,mRNA expression of COX5A,[7],increased
same,mRNA expression of MCAD,[7],increased
same,mRNA expression of SDHA,[7],increased
same,"green fluorescence (MitoTracker Green), quantity of mitochondria",[8],increased in a concentration-dependent manner
